In PMC6471062, “Suppression of the Ubiquitin Pathway by Small Molecule Binding to Ubiquitin Enhances Doxorubicin Sensitivity of the Cancer Cells” (Molecules, 2019):
Where two headings read alike, the source gives them in different places.

Experiments:
ubiquitin = ubiquitin (Homo sapiens, UniProt P0CG47); assay: Intrinsic fluorescence quenching assay of ubiquitin; details: 50 µM ubiquitin, 0–500 µM compound, ex 274 nm / em 305 nm; read-out: Kd, dissociation constant upon binding to ubiquitin
Method: Intrinsic fluorescence quenching assays were performed as described previously. Briefly, intrinsic fluorescence quenching of ubiquitin by indicated compounds was observed by measuring the excitation and emission wavelength at 274 nm and 305 nm respectively of the mixture of 50 µM purified ubiquitin and 0–500 µM compound. Data were fitted to nonlinear regression curves with the equation described previously. F = −∆ε·[PC] + Fo(3) b = (Po + Co + Kd)(4) c = Po·Co(5) [PC] = [b − (b^2 − 4·c)^1/2]/2(6) where Fo and F are the normalized fluorescence intensity of the mixture of ubiquitin without the compound and with different concentrations of the compound, respectively. ∆ε is a difference in the extinction coefficient of the compound between their free and complex forms. [PC] is the concentration of protein/compound complex. Po and Co are the added concentration of ubiquitin and the compound, respectively in each experiment. Kd is the dissociation constant.

USP5 (Homo sapiens) = assay: Deubiquitination assay, cleavage of GST-Ubiquitin-HA by USP5 (SDS-PAGE band intensity); assay type: biochemical
Method: (§1) For in vitro ubiquitination assays, 500 µM of ubiquitin was used for each ubiquitination reaction as described previously, in the absence or presence of 50–500 µM of CR. […] The generation of GST-ubiquitin from GST-Ubiquitin-HA as the mobility shifts were analyzed on 12.5% SDS-PAGE visualized by Coomassie blue staining. Band intensities were quantified by ImageJ [55] and used to generate the IC50 curves (log inhibitor vs. normalized response with variable slope) by GraphPad Prism version 6.0 for Windows (GraphPad Software, San Diego, CA, USA, www.graphpad.com).

UCHL1 (Homo sapiens) = assay: Deubiquitination assay, cleavage of GST-Ubiquitin-HA by UCHL1 (SDS-PAGE band intensity); assay type: biochemical
Method: as §1

[1] = design: method as in PMID 27613091; details: previous study ref 35; cited from earlier work
H1299 cells [2] = assay: Dox-induced K48- and K63-polyubiquitination in cells (immunofluorescence staining, Western blot); assay type: cell-based; details: H1299, non-pretreated, 5 µM Dox
Method: Figure 6 CR inhibits Dox-induced ubiquitination in the cells. (a) Immunofluorescence staining of H1299 cells treated with or without 5 (+) and 10 (++) μM CR for 12 h followed by addition of Dox to a final concentration of 5 μM, with incubation for 12 h. The cells were subjected to immunofluorescence staining using the antibodies against K48 (αK48) and K63 polyubiquitins (αK63). (b) K48 or K63 polyubiquitin level in Figure 6a was quantified by fluorescence signal. At least seven random regions acquired in confocal images were sampled and normalized against DAPI intensity for quantification. (c) Immunoblots of samples in Figure 6a using the indicated antibodies. […] Statistical significance was calculated by the Student’s t-test (* p < 0.05, ** p < 0.01, *** p < 0.001).
Cells were seeded in the SPL 4 wells cell culture chamber slide 24 h before experiment. […] Subsequently, cells were incubated with primary antibody at 1/200 dilution in blocking buffer overnight and then washed with blocking buffer five times (5 min each) before incubation with fluorescence-conjugated secondary antibody at 1/200 dilution in blocking buffer for 1 h. […] Images acquired in confocal imaging were subjected to fluorescence intensity analysis using ImageJ [55]. Fluorescence signal representing a particular ubiquitin chain level was analyzed and normalized with the intensity of DAPI. […]

H1299 cells [3] = assay: Dox-induced cell death, colorimetric cell viability, H1299; assay type: cell-based
Method: (§2) Figure 7 CR enhances Dox sensitivity of cancer cells. (a,b) Enhancement of Dox-induced apoptosis of cancer cells by CR treatment. Dox–induced apoptosis of H1299 (a) and HCT116 (b) was quantified by colorimetric cell viability after treating 10 µM CR for 12 h followed by 12h treatment of Dox (0.0–5.0 µM). […] Caspase activity was quantified by luminogenic caspase activity assay. […] All error bars represent the standard deviation from at least four independent experiments. Statistical significance was calculated by the Student’s t-test (** p < 0.01, *** p < 0.001).
(§3) Cell viability assays were performed as described previously. For the caspase assays, the media were removed, and cells were lysed in 200 µL lysis buffer containing 50 µL Caspase Glo 3/7 solution and incubated for 15 min. Results were observed by measuring the luminescence signal using KOMM-Nr (Berthold Technologies, Bad Wildbad, Germany) and normalized with the total protein concentration measured by the Bradford assay. Data were analyzed using GraphPad Prism version 6.0 for Windows with two tail t-test for statistical data analysis […]
(§4) Figure S8. NSC697923 enhances Dox sensitivity of cancer cells. (a, b) Effect of NSC697923 to cancer cells’ viability in Dox treatment . Dox–induced cell death of H1299 ( a) and HCT116 ( b) was quantified by colorimetric cell viability assay after treating 5 µM NSC697923 for 12 h followed by 12h treatment of Dox (0.0 […]
(§5) NSC697923. Caspase activity was quantified by luminogenic caspase activity assay. All error bars represent the standard deviation from at least 4 independent experiments. *, P<0.05; **, P<0.01; ***, P<0.001.

HCT116 cells [4] = assay: Dox-induced cell death, colorimetric cell viability, HCT116; assay type: cell-based; details: for Effect on Dox-induced cell death, HCT116: 10 µM CR or 5 µM NSC697923 12 h, then Dox 1.25–5.0 μM 12 h
Method: as §2
as §3, with “assay.” for “assay. Data were analyzed using GraphPad Prism version 6.0 for Windows with two tail t-test for statistical data analysis”
as §4, §5

H1299 cells [5] = assay: Cytotoxicity, cell viability assay; assay type: cell-based; details: determined by cytotoxicity assays
Method: as §3
Figure S7. Cytotoxicity of CR to cancer cells. H1299 cells were cultured in 96 -well plates. CR was added to final concentrations of 0.0 – 50.0 µM, and the cells were incubated for 24 h followed by cell viability assay. All error bars represent the standard deviation from at least 4 independent experiments. Statistical comparisons between groups were determined by Student’s t -test. If p -values are less than 0.05, they are statistically significant . NS, not […]
(1 picture or pasted object on this page, not shown here)

H1299 cells [6] = assay: Luminogenic caspase activity assay (Caspase Glo 3/7), H1299; assay type: cell-based; details: 10 µM CR or 5 µM NSC697923 with Dox
Method: as §2
as §3, with “assay.” for “assay. Data were analyzed using GraphPad Prism version 6.0 for Windows with two tail t-test for statistical data analysis”
as §4
(§6) NSC697923. Caspase activity was quantified by luminogenic caspase activity assay. […]

HCT116 cells [7] = assay: Luminogenic caspase activity assay (Caspase Glo 3/7), HCT116; assay type: cell-based; details: 10 µM CR or 5 µM NSC697923 with Dox
Method: as §2
as §3, with “assay.” for “assay. Data were analyzed using GraphPad Prism version 6.0 for Windows with two tail t-test for statistical data analysis”
as §4, §6

[8] = 0.6 µM USP5, 5 µM GST-Ubiquitin-HA, 0–45 µM compound, read-out: IC50 USP5 (DUB activity)
[9] = 8 µM UCHL1, 5 µM GST-Ubiquitin-HA, 0–45 µM compound, read-out: IC50 UCHL1 (DUB activity)

Sequence of UCHL1 (Homo sapiens) (P09936 whole entry, other chains not shown): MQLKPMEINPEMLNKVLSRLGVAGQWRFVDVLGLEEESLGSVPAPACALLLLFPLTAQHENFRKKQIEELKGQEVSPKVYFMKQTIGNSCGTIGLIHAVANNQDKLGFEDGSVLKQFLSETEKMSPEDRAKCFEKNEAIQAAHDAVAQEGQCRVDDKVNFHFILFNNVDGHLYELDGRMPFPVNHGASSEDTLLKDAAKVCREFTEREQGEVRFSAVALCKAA
Sequence of USP5 (Homo sapiens) (P45974 2-858, other chains not shown): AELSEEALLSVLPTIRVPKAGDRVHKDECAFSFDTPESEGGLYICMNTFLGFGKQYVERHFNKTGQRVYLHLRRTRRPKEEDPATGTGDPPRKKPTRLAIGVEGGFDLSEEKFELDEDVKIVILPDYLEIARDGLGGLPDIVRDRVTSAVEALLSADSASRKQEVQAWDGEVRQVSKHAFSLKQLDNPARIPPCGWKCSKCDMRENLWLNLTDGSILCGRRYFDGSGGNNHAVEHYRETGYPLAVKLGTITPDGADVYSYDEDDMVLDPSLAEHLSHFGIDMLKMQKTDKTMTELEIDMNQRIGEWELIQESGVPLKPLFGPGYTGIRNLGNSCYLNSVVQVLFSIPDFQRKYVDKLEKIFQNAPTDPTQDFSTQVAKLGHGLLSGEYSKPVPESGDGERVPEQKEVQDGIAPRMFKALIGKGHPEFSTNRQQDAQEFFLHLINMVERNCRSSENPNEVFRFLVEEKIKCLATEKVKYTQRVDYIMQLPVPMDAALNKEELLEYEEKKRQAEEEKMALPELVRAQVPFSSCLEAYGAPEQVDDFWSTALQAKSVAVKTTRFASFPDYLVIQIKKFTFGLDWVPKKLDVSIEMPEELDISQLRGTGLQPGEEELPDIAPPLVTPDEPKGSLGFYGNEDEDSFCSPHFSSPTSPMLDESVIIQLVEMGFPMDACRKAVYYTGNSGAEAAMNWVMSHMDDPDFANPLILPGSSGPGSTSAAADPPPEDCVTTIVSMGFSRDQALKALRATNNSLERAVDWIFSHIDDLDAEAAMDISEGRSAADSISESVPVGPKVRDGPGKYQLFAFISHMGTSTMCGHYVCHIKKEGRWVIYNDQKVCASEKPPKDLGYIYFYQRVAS

Q: What does the source list for `COc1cc(-c2ccc(/N=N/c3ccc4c(S(=O)(=O)O)cc(S(=O)(=O)O)c(N)c4c3O)c(OC)c2)ccc1/N=N/c1ccc2c(S(=O)(=O)O)cc(S(=O)(=O)O)c(N)c2c1O` [CSB6B, Chicago Sky Blue 6B]?
A: Kd (ubiquitin): 12 ± 0.678 µM; IC50 (USP5 (Homo sapiens)): 6.52 ± 0.786 µM; IC50 (UCHL1 (Homo sapiens)): 11.2 ± 1.37 µM; Cell membrane penetration [1]: not able to penetrate the cell membrane

Q: What does the source list for `COc1cc(-c2ccc(/N=N/c3c(S(=O)(=O)O)cc4cc(S(=O)(=O)O)cc(N)c4c3O)c(OC)c2)ccc1/N=N/c1c(S(=O)(=O)O)cc2cc(S(=O)(=O)O)cc(N)c2c1O` [DB15, Direct blue 15]?
A: Kd (ubiquitin): 60.3 ± 2.3 µM; IC50 (USP5 (Homo sapiens); [8]): 32.5 ± 5 µM

Q: With `Nc1ccc2c(O)c(N=Nc3ccc(N=Nc4ccc(N=Nc5cc(S(=O)(=O)O)c6cccc(S(=O)(=O)O)c6c5)c5ccccc45)c4ccc(S(=O)(=O)O)cc34)c(S(=O)(=O)O)cc2c1` [DB71, Direct blue 71] as the compound, how does the Kd (ubiquitin) read?
A: The Kd was 20 ± 0.835 µM.

Q: What about the IC50 (USP5 (Homo sapiens); [8]) of the same compound?
A: Its IC50 is 13.7 ± 2.74 µM.

Q: What about the IC50 (UCHL1 (Homo sapiens); [9]) of the same compound?
A: Its IC50 is 33.7 ± 4.05 µM.

Q: With `COc1cccc2c1C(=O)c1c(O)c3c(c(O)c1C2=O)C[C@@](O)(C(=O)CO)C[C@@H]3O[C@H]1C[C@H](N)[C@H](O)[C@H](C)O1` [Dox, doxorubicin] as the compound, how does the “K48- and K63-polyubiquitination upon Dox alone” value (H1299 cells [2]) read?
A: Its value is “enhanced K48- and K63-polyubiquitination”.

Q: And the “Dox-induced cell death, Dox alone, H1299” value (H1299 cells [3]; Dox 1.25 to 5.0 μM, 12 h)?
A: The value was “proportional to the Dox concentration”.

Q: What about the “Dox-induced cell death, Dox alone, HCT116” value (HCT116 cells [4]; Dox 1.25 to 5.0 μM, 12 h) of the same compound?
A: The value was “proportional to the Dox concentration”.

Q: Which Kd (ubiquitin) does the source give for `Cc1cc(-c2ccc(/N=N/c3ccc4c(S(=O)(=O)O)cc(S(=O)(=O)O)c(N)c4c3O)c(C)c2)ccc1/N=N/c1ccc2c(S(=O)(=O)O)cc(S(=O)(=O)O)c(N)c2c1O` [EB, Evans blue] here?
A: Its Kd is 13 ± 0.689 µM.

Q: What about the IC50 (USP5 (Homo sapiens); [8]) of the same compound?
A: The IC50 was 9.33 ± 1.58 µM.

Q: And the IC50 (UCHL1 (Homo sapiens); [9])?
A: The IC50 was 18.1 ± 2.09 µM.

Q: For `Cc1ccc(S(=O)(=O)c2ccc([N+](=O)[O-])o2)cc1` [NSC697923], which None-toxicity concentration (H1299 cells [5]) is on record?
A: Its None-toxicity concentration is 5 µM.

Q: And the “Effect on Dox-induced cell death, H1299” value (H1299 cells [3]; 10 µM CR or 5 µM NSC697923 12 h, then Dox 1.25–5.0 μM 12 h)?
A: The value was “significantly enhanced Dox-induced cell death”.

Q: And the “Effect on Dox-induced cell death, HCT116” value (HCT116 cells [4])?
A: Its value is “only a synergistic effect at low concentrations of Dox”.

Q: And the “Effect on Dox-induced cell death, HCT116” value (HCT116 cells [4]; listed as NSC967923)?
A: Its value is “significantly enhanced Dox-induced cell death”.

Q: And the “Effect on caspase activity of Dox-treated H1299 cells” value (H1299 cells [6])?
A: The value was “Enhanced caspase activity”.

Q: What about the “Effect on caspase activity of Dox-treated HCT116 cells” value (HCT116 cells [7]) of the same compound?
A: The value was “Enhanced caspase activity”.

Q: With `Cc1cc(-c2ccc(/N=N/c3c(S(=O)(=O)O)cc4cc(S(=O)(=O)O)cc(N)c4c3O)c(C)c2)ccc1/N=N/c1c(S(=O)(=O)O)cc2cc(S(=O)(=O)O)cc(N)c2c1O` [TB, Trypan blue] as the compound, how does the Kd (ubiquitin) read?
A: Its Kd is 78.1 ± 4.02 µM.

Q: And the IC50 (USP5 (Homo sapiens); [8])?
A: The IC50 was over 45 µM.
